According to paper PMC12649549, “Sequence Permutation Generated Lysine and Tryptophan-Rich Antimicrobial Peptides with Enhanced Therapeutic Index” (Antibiotics, 2025):
Where two headings read alike, the source gives them in different places.

Tests used:
[1] = tested on: A. baumannii 14B00100 (Acinetobacter sp., BCRC number 14B0100)
Method in brief: (§1)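 Salt and pH tolerance was assessed by determining MICs in LYM medium containing 50–300 mM NaCl, 0.5–2.5 mM MgCl2, or at pH 4.5–6.5, alongside MH broth. The inoculum was 5 × 10^5 CFU/mL.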

[2] = tested on: A. baumannii 14B0091 (Acinetobacter sp., BCRC number 14B0091)
Method in brief: as §1

[3] = tested on: A. baumannii 14B0097 (Acinetobacter sp., BCRC number 14B0097)
Method in brief: as §1

[4] = tested on: Escherichia coli (ATCC 25922)
Method in brief: as §1

S. aureus ATCC 25923 = tested on: S. aureus ATCC 25923
Method in brief: as §1

S. aureus ATCC 33591 = tested on: S. aureus ATCC 33591
Method in brief: as §1

S. aureus ATCC 33593 = tested on: S. aureus ATCC 33593
Method in brief: as §1

S. aureus ATCC 6538 = tested on: S. aureus ATCC 6538
Method in brief: as §1

[5] = LYM broth, 0 mM NaCl, 16 h, 37 °C
[6] = LYM broth, 50 mM NaCl, 16 h, 37 °C
[7] = LYM broth, 100 mM NaCl, 16 h, 37 °C
[8] = LYM broth, 200 mM (NaCl), 16 h, 37 °C
[9] = LYM broth, 300 mM (NaCl), 16 h, 37 °C
[10] = MH broth, 5 × 10^5 CFU/mL, 16 h, 37 °C, repeated three times

Ac-WRKWLKWLAKKKK-NH2 [Peptide W5K02]
MIC [1, 5]: 1.56 µg/mL | MIC ([1]; LYM broth, 0.5 mM MgCl2): 1.56 µg/mL | MIC ([1]; LYM broth, 1.5 mM MgCl2): 1.56 µg/mL | MIC ([1]; LYM broth, 2.5 mM MgCl2): 3.13 µg/mL | MIC [1, 6]: 1.56 µg/mL | MIC [1, 7]: 1.56 µg/mL | MIC [1, 8]: 3.13 µg/mL | MIC [1, 9]: 6.25 µg/mL | MIC ([1]; LYM broth, pH 4.5): 1.56 µg/mL | MIC ([1]; LYM broth, pH 5.5): 1.56 µg/mL | MIC ([1]; LYM broth, pH 6.5): 1.56 µg/mL | MIC [1, 10]: 6.25 µg/mL | MIC [2, 5]: 1.56 µg/mL | MIC ([2]; LYM broth, 0.5 mM MgCl2): 1.56 µg/mL | MIC ([2]; LYM broth, 1.5 mM MgCl2): 1.56 µg/mL | MIC ([2]; LYM broth, 2.5 mM MgCl2): 1.56 µg/mL | MIC [2, 6]: 1.56 µg/mL | MIC [2, 7]: 1.56 µg/mL | MIC [2, 8]: 3.13 µg/mL | MIC [2, 9]: 6.25 µg/mL | MIC ([2]; LYM broth, pH 4.5): 1.56 µg/mL | MIC ([2]; LYM broth, pH 5.5): 1.56 µg/mL | MIC ([2]; LYM broth, pH 6.5): 1.56 µg/mL | MIC [2, 10]: 3.13 µg/mL | MIC [3, 5]: 1.56 µg/mL | MIC ([3]; LYM broth, 0.5 mM MgCl2): 1.56 µg/mL | MIC ([3]; LYM broth, 1.5 mM MgCl2): 3.13 µg/mL | MIC ([3]; LYM broth, 2.5 mM MgCl2): 3.13 µg/mL | MIC [3, 6]: 1.56 µg/mL | MIC [3, 7]: 1.56 µg/mL | MIC [3, 8]: 3.13 µg/mL | MIC [3, 9]: 6.25 µg/mL | MIC ([3]; LYM broth, pH 4.5): 3.13 µg/mL | MIC ([3]; LYM broth, pH 5.5): 3.13 µg/mL | MIC ([3]; LYM broth, pH 6.5): 3.13 µg/mL | MIC [3, 10]: 3.13 µg/mL | MIC [4, 5]: 6.25 µg/mL | MIC ([4]; LYM broth, 0.5 mM MgCl2): 6.25 µg/mL | MIC ([4]; LYM broth, 1.5 mM MgCl2): 12.5 µg/mL | MIC ([4]; LYM broth, 2.5 mM MgCl2): 12.5 µg/mL | MIC [4, 6]: 12.5 µg/mL | MIC [4, 7]: 25 µg/mL | MIC [4, 8]: >50 µg/mL | MIC [4, 9]: >50 µg/mL | MIC ([4]; LYM broth, pH 4.5): 3.13 µg/mL | MIC ([4]; LYM broth, pH 5.5): 3.13 µg/mL | MIC ([4]; LYM broth, pH 6.5): 3.13 µg/mL | MIC [4, 10]: 12.5 µg/mL | MIC (S. aureus ATCC 25923; [5]): 6.25 µg/mL | MIC (S. aureus ATCC 25923; LYM broth, 0.5 mM MgCl2): 6.25 µg/mL | MIC (S. aureus ATCC 25923; LYM broth, 1.5 mM MgCl2): 6.25 µg/mL | MIC (S. aureus ATCC 25923; LYM broth, 2.5 mM MgCl2): 6.25 µg/mL | MIC (S. aureus ATCC 25923; [6]): 6.25 µg/mL | MIC (S. aureus ATCC 25923; [7]): 12.5 µg/mL | MIC (S. aureus ATCC 25923; [8]): 50 µg/mL | MIC (S. aureus ATCC 25923; [9]): >50 µg/mL | MIC (S. aureus ATCC 25923; LYM broth, pH 4.5): 3.13 µg/mL | MIC (S. aureus ATCC 25923; LYM broth, pH 5.5): 3.13 µg/mL | MIC (S. aureus ATCC 25923; LYM broth, pH 6.5): 3.13 µg/mL | MIC (S. aureus ATCC 25923; [10]): 25 µg/mL | MIC (S. aureus ATCC 33591; [5]): 6.25 µg/mL | MIC (S. aureus ATCC 33591; LYM broth, 0.5 mM MgCl2): 6.25 µg/mL | MIC (S. aureus ATCC 33591; LYM broth, 1.5 mM MgCl2): 6.25 µg/mL | MIC (S. aureus ATCC 33591; LYM broth, 2.5 mM MgCl2): 6.25 µg/mL | MIC (S. aureus ATCC 33591; [6]): 6.25 µg/mL | MIC (S. aureus ATCC 33591; [7]): 12.5 µg/mL | MIC (S. aureus ATCC 33591; [8]): 50 µg/mL | MIC (S. aureus ATCC 33591; [9]): 50 µg/mL | MIC (S. aureus ATCC 33591; LYM broth, pH 4.5): 6.25 µg/mL | MIC (S. aureus ATCC 33591; LYM broth, pH 5.5): 6.25 µg/mL | MIC (S. aureus ATCC 33591; LYM broth, pH 6.5): 6.25 µg/mL | MIC (S. aureus ATCC 33591; [10]): 25 µg/mL | MIC (S. aureus ATCC 33593; [5]): 6.25 µg/mL | MIC (S. aureus ATCC 33593; LYM broth, 0.5 mM MgCl2): 6.25 µg/mL | MIC (S. aureus ATCC 33593; LYM broth, 1.5 mM MgCl2): 6.25 µg/mL | MIC (S. aureus ATCC 33593; LYM broth, 2.5 mM MgCl2): 6.25 µg/mL | MIC (S. aureus ATCC 33593; [6]): 6.25 µg/mL | MIC (S. aureus ATCC 33593; [7]): 12.5 µg/mL | MIC (S. aureus ATCC 33593; [8]): 50 µg/mL | MIC (S. aureus ATCC 33593; [9]): >50 µg/mL | MIC (S. aureus ATCC 33593; LYM broth, pH 4.5): 6.25 µg/mL | MIC (S. aureus ATCC 33593; LYM broth, pH 5.5): 6.25 µg/mL | MIC (S. aureus ATCC 33593; LYM broth, pH 6.5): 3.13 µg/mL | MIC (S. aureus ATCC 33593; [10]): 25 µg/mL | MIC (S. aureus ATCC 6538; [5]): 6.25 µg/mL | MIC (S. aureus ATCC 6538; LYM broth, 0.5 mM MgCl2): 3.13 µg/mL | MIC (S. aureus ATCC 6538; LYM broth, 1.5 mM MgCl2): 3.13 µg/mL | MIC (S. aureus ATCC 6538; LYM broth, 2.5 mM MgCl2): 6.25 µg/mL | MIC (S. aureus ATCC 6538; [6]): 6.25 µg/mL | MIC (S. aureus ATCC 6538; [7]): 12.5 µg/mL | MIC (S. aureus ATCC 6538; [8]): 25 µg/mL | MIC (S. aureus ATCC 6538; [9]): 50 µg/mL | MIC (S. aureus ATCC 6538; LYM broth, pH 4.5): 6.25 µg/mL | MIC (S. aureus ATCC 6538; LYM broth, pH 5.5): 3.13 µg/mL | MIC (S. aureus ATCC 6538; LYM broth, pH 6.5): 3.13 µg/mL | MIC (S. aureus ATCC 6538; [10]): 12.5 µg/mL
